This passage reports EC50 results from US12440496B2, “Natriuretic peptide receptor a agonists useful for the treatment of cardiometabolic diseases, kidney disease and diabetes” (Merck Sharp & Dohme LLC, priority 2019, dated 2025).

Structures are written as SMILES.

The test concerns the target T1, hNPRA (Homo sapiens, UniProt P16066).
T1 construct: expressed in transfected cells
T1 sequence (P16066 33-1061): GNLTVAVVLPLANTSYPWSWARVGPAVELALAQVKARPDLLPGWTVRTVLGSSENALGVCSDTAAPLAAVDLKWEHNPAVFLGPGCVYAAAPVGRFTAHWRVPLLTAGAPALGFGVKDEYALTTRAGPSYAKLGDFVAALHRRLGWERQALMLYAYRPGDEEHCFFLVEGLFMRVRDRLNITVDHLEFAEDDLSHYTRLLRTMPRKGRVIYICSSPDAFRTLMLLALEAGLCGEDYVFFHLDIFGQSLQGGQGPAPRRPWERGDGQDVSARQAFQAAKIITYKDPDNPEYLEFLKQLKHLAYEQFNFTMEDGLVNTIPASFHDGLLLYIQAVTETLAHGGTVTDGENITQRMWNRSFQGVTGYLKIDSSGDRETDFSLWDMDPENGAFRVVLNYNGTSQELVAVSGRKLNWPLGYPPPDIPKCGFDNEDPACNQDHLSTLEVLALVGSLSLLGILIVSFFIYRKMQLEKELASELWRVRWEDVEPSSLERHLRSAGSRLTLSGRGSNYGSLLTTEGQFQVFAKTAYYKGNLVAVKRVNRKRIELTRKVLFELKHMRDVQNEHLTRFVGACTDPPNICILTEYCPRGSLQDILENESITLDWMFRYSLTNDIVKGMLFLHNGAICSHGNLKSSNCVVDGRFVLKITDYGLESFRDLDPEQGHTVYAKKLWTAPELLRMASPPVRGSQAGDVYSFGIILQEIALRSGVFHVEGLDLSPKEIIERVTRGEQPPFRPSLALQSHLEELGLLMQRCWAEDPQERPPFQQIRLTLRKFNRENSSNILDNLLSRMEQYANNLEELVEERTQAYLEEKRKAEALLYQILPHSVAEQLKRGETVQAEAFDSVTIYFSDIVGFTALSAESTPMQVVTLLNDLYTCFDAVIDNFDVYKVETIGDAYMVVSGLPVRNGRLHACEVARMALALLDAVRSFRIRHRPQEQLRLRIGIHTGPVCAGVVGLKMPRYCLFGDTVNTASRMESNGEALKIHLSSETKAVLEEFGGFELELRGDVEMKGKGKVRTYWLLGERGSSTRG
Nature of the test: NPRA Functional Cell Assay (cGMP HTRF, NPRA HEK JumpIn stable cells). The test is classed as cell-based. As to conditions: cGMP production, 1 hour at 37° C., 10-point dose response. Summed up: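 cGMP HTRF read-out after 1 hour compound treatment at 37° C. of human NPRA-expressing HEK JumpIn cells, 1500 cells/well, in buffer with phosphodiesterase inhibitors IBMX and RO20 (100 uM each). Signal converted to [cGMP] by calibration curve; EC50s fitted by 4-parameter logistic; 50 nM h-ANP as positive response.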
Broadly, the EC50 is the concentration giving half of the maximal effect. A low value points to greater potency. In turn, `CC(C)(C)[C@H]1CCc2nc3sc(C(=O)N[C@H](CCN4CCC(n5cnnc5)CC4)c4ccc(-c5ccc(=O)[nH]c5)cc4)cc3cc2C1` (racemic) [Example 29, rac-(6S)-6-tert-butyl-N-[rac-(1R)-1-[4-(6-oxo-1H-pyridin-3-yl)phenyl]-3-[4-(1,2,4-triazol-4-yl)piperidin-1-ium-1-yl]propyl]-5,6,7,8-tetrahydrothieno[2,3-b]quinoline-2-carboxamide;formate] showed an EC50 of 448 nM.
In the case of `CC(C)(C)[C@H]1CCc2nc3sc(C(=O)N[C@H](CCN4CCC(O)CC4)c4ccc(-c5ccc(OCCF)nc5)cc4)nc3cc2C1` (racemic) [Example 128, rac-(7S)-7-tert-butyl-N-[rac-(1R)-1-[4-[6-(2-fluoroethoxy)-3-pyridyl]phenyl]-3-(4-hydroxypiperidin-1-ium-1-yl)propyl]-5,6,7,8-tetrahydrothiazolo[5,4-b] quinoline-2-carboxamide; 2,2,2-trifluoroacetate] it was 1180 nM; in that of `CC(C)(C)[C@H]1CCc2nc3sc(C(=O)N[C@H](CCN4CCCC4)c4ccccc4)cc3cc2C1` [Example 253, (6S)-6-tert-butyl-N-[(1R)-1-phenyl-3-pyrrolidin-1-ylpropyl]-5,6,7,8-tetrahydrothieno[2,3-b]quinoline-2-carboxamide], 3220 nM.
To `CC(C)(C)[C@H]1CCc2nc3sc(C(=O)N[C@H](CCN4CCC(O)CC4)c4ccc(OCCO)nc4)nc3cc2C1` (racemic) [Example 192, rac-(7S)-7-tert-butyl-N-[rac-(1R)-1-[6-(2-hydroxyethoxy)-3-pyridyl]-3-(4-hydroxy-1-piperidyl)propyl]-5,6,7,8-tetrahydrothiazolo[5,4-b]quinoline-2-carboxamide] belongs 665 nM.
Molecule `CC(C)(C)[C@H]1CCc2nc3sc(C(=O)N[C@H](CCN4CCC5(CC4)CNC(=O)O5)c4ccc(-c5ccc(=O)[nH]c5)cc4)cc3cc2C1` (racemic) [Example 40, rac-(6S)-6-tert-butyl-N-[rac-(1R)-3-(2-oxo-1-oxa-3-aza-8-azoniaspiro[4.5]decan-8-yl)-1-[4-(6-oxo-1H-pyridin-3-yl)phenyl]propyl]-5,6,7,8-tetrahydrothieno[2,3-b]quinoline-2-carboxamide;formate] showed an EC50 of 655 nM. The EC50 values of the last two molecules are within 1.5-fold of each other.
To `CC(C)(C)[C@H]1CCc2nc3sc(C(=O)N[C@H](CCN4CCC(O)CC4)c4ccccc4)cc3cc2C1` [Example 250, (6S)-6-tert-butyl-N-[(1R)-3-(4-hydroxypiperidin-1-yl)-1-phenylpropyl]-5,6,7,8-tetrahydrothieno[2,3-b]quinoline-2-carboxamide] belongs 632 nM; to `CC(C)(C)[C@H]1CCc2nc3sc(C(=O)N[C@H](CCN4CCCCC4)c4ccc(-c5cnc(=O)[nH]c5)cc4)cc3cc2C1` (racemic) [Example 2, rac-(6S)-6-tert-butyl-N-[rac-(1R)-1-[4-(2-oxo-1H-pyrimidin-5-yl)phenyl]-3-(1-piperidyl)propyl]-5,6,7,8-tetrahydrothieno[2,3-b]quinoline-2-carboxamide], 518 nM; to `CC(C)(C)[C@H]1CCc2nc3sc(C(=O)N[C@H](CCN4CCC(C(=O)O)CC4)c4cccc(C(=O)NC5CNC5)c4)nc3cc2C1` (racemic) [Example 122, 1-[rac-(3R)-3-[3-(azetidin-1-ium-3-ylcarbamoyl)phenyl]-3-[rac-(7S)-7-tert-butyl-5,6,7,8-tetrahydrothiazolo [5,4-b]quinoline-2-carbonyl]amino]propyl] piperidine-4-carboxylic acid; 2,2,2-trifluoroacetate], 637 nM.
As for `CC(C)(C)[C@H]1CCc2nc3sc(C(=O)N[C@H](CCN4CCC(O)CC4)c4ccc(-c5ccc(=O)[nH]c5)cc4)nc3cc2C1` (racemic) [Example 164, rac-(7S)-7-tert-butyl-N-[rac-(1R)-3-(4-hydroxypiperidin-1-ium-1-yl)-1-[4-(6-hydroxy-3-pyridyl)phenyl]propyl]-5,6,7,8-tetrahydrothiazolo[5,4-b]quinoline-2-carboxamide; 2,2,2-trifluoroacetate], the EC50 was 590 nM.
